The values below come from ChEMBL document CHEMBL5321237 (Eur J Med Chem, 2023).

pIC50, pKd: −log10 of the molar value. Values after ≈ are worked out from the molar mass of the structure shown. Active and inactive are the calls of the source. The calls are words filed in the database; no cut-off is given here. Where only a bound is given, the exact number is not on record here.

The nature of data set [1]: Metabolic stability in human liver microsomes assessed as intrinsic clearance at 3 uM measured upto 50 mins by LC-MS analysis. Format: ADME, Microsome. For orientation: Liver microsomes are a subcellular fraction often used to study metabolism.
For data set [2], the target named is T1, Macrophage colony-stimulating factor 1 receptor (Mus musculus, UniProt P09581).
T1 sequence (P09581 whole entry): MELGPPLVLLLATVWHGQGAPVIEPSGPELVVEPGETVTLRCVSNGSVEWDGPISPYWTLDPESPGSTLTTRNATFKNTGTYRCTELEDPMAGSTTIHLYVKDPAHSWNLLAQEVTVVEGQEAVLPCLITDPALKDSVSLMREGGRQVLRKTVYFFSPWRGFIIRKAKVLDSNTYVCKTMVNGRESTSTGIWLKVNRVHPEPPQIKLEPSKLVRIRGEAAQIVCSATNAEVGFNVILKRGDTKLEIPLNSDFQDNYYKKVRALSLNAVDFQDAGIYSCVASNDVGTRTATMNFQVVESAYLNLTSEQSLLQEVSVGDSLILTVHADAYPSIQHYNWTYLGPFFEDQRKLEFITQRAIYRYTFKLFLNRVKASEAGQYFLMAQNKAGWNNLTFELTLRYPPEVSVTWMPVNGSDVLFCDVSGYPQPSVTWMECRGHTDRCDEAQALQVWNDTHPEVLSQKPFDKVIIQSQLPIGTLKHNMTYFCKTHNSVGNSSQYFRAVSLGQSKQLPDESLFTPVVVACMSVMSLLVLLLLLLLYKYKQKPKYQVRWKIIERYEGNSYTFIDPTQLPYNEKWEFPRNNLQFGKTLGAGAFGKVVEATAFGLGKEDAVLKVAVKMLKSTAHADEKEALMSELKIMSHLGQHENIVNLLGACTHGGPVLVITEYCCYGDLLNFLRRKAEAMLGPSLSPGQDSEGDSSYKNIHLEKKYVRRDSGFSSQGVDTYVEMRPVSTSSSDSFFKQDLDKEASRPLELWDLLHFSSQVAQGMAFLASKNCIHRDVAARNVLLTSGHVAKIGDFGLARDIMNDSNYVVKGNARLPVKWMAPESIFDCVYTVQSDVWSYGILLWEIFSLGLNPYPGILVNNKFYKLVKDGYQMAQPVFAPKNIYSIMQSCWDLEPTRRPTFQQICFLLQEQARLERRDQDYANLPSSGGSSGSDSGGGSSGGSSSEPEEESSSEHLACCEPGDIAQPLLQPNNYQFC
In words: Inhibition of CSF1-induced CSF1R signalling in mouse BMDM cells assessed as reduction in ERK1/2 phosphorylation preincubated for 30 mins followed by CSF1 addition and measured after 10 mins. Format: cell-based.

The nature of data set [3]: Kinetic aqueous solubility of compound at pH 7.4 at 500 uM incubated for 90 mins by spectrophotometry analysis. The conditions noted are these: buffer, read-out: Kinetic_solubility. It is filed as physicochemical.
Data set [4] has as its target T2, Macrophage colony-stimulating factor 1 receptor (Homo sapiens, UniProt P07333). In words: Inhibition of CSF1R (unknown origin) using FRET-peptide as substrate incubated in presence of ATP by FRET based Z-LYTE assay.
Data set [5] can be described thus: Stability in mouse plasma assessed as compound remaining at 5 uM incubated for 1 hr by LC-MS analysis. It is filed as ADME, cell-free. Conditions: read-out: Stability.
Data set [6] is described as follows: Metabolic stability in cryopreserved pooled ICR/CD-1 mouse hepatocytes assessed as intrinsic clearance measured per 10^6 cells at 3 uM measured for 60 mins by LC-MS/MS analysis. Format: ADME, cell-based, Hepatocyte. Conditions: read-out: CLH.
A short description of data set [7]: Microsomal stability mouse liver microsomes assessed as compound remaining at 5 uM incubated for 1 hr by LC-MS analysis. Conditions: read-out: Stability. It is filed as ADME, Microsome.
Data set [8] can be described thus: Plasma protein binding in mouse assessed as bound fraction at 5 uM incubated for 6 hrs by equilibrium dialysis based LC-MS analysis. Format: ADME, cell-free. Conditions: read-out: PPB (converted). (In equilibrium dialysis free small molecules cross a membrane that holds back macromolecules.)
For another data set, the system named is BaF3. In words: Antiproliferative activity against BaF3 cells expressing human CSF1R assessed as suppression of cell proliferation incubated for 72 hrs by Cell Titer Glo assay. Format: functional, cell-based. The conditions noted are these: Mus musculus, BaF3, 72 h.
Data set [9] is described as follows: Observed volume of distribution at steady state in C57BLKS mouse at 1 mg/kg, iv administered as cassette dose measured for 480 mins by LC-MS analysis. It is filed as ADME, organism-based. Conditions: in vivo, read-out: Vdss.
Data set [10] in a line: Metabolic stability in mouse liver microsomes assessed as intrinsic clearance at 3 uM measured upto 50 mins by LC-MS analysis. It is filed as ADME, Microsome.
The nature of data set [11]: Clearance in C57BLKS mouse at 1 mg/kg, iv administered as cassette dose measured for 480 mins by LC-MS analysis. Format: ADME, organism-based. Conditions: in vivo; for clearance: C57BLKS.
The nature of data set [12]: Half life in C57BLKS mouse at 1 mg/kg, iv administered as cassette dose measured for 480 mins by LC-MS analysis. It is filed as ADME, organism-based. The conditions noted are these: in vivo.
Data set [13] in a line: Inhibition of […] induced osteoclast differentiation in human Osteoclast precursor cells assessed as suppression of osteoclast formation at 100 to 1000 nM incubated for over 7 days with media replacement for every 3 days by TRITC-phalloidin/Hoechst staining based microscopic analysis relative to control. Format: functional, Osteoclast precursor cell. The conditions noted are these: dose 100-1000 nM, time > 7 day.

Data set [14] has as its system Osteoclast precursor cell. Conditions: Homo sapiens, dose 10.0 nM, time > 7.0 day.
The target of data set [15] is T2, Macrophage colony-stimulating factor 1 receptor. In words: Binding affinity to autoinhibited form of CSF1R (unknown origin) assessed as dissociation constant incubated for 1 hr by qPCR based Hill equation analysis. (In general: In qPCR the cycle at which signal appears reflects the starting amount.)
Data set [16] deals with Osteoclast precursor cell. The conditions noted are these: Homo sapiens, dose 100-1000 nM, time > 7.0 day.
Data set [17] deals with T2, Macrophage colony-stimulating factor 1 receptor. In words: Binding affinity to non-autoinhibited form of CSF1R (unknown origin) assessed as dissociation constant incubated for 1 hr by qPCR based Hill equation analysis.
For data set [18], the target named is T3, Macrophage colony-stimulating factor 1 receptor (Mus musculus) (UniProt P09581).
T3 sequence (whole entry): T1 sequence (P09581 whole entry)
Description: Inhibition of CSF1-induced CSF1R signalling in mouse BMDM cells assessed as reduction in ERK1/2 phosphorylation by measuring fold change preincubated for 30 mins followed by CSF1 addition and measured after 10 mins relative to pexidartinib. It is filed as cell-based. The conditions noted are these: time 40.0 min.

Data set [19] has as its target Epidermal growth factor receptor (Homo sapiens, UniProt P00533). In words: Inhibition of EGFR (unknown origin) in presence of ATP.
Data set [20] addresses T2, Macrophage colony-stimulating factor 1 receptor. In words: Selectivity index, ratio of Kd for non-autoinhibited form of CSF1R (unknown origin) to Kd for autoinhibited form of CSF1R (unknown origin).

T2 sequence (P07333 whole entry): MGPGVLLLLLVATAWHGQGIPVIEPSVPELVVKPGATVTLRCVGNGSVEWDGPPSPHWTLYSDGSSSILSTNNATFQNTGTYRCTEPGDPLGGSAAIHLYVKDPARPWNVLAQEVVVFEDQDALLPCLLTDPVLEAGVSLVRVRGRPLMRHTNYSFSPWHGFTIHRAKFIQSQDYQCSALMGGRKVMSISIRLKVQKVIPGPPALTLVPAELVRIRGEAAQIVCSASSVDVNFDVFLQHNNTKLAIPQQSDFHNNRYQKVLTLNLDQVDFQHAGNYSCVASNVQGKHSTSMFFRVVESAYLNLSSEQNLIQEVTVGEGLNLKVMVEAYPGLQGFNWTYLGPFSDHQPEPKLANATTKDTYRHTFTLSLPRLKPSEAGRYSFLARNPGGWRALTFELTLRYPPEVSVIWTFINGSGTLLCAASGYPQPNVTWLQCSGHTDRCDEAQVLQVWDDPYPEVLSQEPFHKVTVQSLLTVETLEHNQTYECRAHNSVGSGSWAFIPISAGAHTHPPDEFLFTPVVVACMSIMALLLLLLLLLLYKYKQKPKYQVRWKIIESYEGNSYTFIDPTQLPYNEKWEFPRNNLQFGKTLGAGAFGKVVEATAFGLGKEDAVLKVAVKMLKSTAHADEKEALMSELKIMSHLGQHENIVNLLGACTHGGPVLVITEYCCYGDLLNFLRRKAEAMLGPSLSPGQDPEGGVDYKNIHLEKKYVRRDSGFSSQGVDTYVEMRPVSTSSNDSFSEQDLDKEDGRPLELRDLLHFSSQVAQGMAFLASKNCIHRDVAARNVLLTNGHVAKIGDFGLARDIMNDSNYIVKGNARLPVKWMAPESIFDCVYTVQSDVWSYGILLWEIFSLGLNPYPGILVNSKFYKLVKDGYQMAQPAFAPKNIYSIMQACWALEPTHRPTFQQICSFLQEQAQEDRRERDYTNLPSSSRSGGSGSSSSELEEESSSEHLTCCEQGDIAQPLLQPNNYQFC
Chain of Epidermal growth factor receptor (P00533 whole entry): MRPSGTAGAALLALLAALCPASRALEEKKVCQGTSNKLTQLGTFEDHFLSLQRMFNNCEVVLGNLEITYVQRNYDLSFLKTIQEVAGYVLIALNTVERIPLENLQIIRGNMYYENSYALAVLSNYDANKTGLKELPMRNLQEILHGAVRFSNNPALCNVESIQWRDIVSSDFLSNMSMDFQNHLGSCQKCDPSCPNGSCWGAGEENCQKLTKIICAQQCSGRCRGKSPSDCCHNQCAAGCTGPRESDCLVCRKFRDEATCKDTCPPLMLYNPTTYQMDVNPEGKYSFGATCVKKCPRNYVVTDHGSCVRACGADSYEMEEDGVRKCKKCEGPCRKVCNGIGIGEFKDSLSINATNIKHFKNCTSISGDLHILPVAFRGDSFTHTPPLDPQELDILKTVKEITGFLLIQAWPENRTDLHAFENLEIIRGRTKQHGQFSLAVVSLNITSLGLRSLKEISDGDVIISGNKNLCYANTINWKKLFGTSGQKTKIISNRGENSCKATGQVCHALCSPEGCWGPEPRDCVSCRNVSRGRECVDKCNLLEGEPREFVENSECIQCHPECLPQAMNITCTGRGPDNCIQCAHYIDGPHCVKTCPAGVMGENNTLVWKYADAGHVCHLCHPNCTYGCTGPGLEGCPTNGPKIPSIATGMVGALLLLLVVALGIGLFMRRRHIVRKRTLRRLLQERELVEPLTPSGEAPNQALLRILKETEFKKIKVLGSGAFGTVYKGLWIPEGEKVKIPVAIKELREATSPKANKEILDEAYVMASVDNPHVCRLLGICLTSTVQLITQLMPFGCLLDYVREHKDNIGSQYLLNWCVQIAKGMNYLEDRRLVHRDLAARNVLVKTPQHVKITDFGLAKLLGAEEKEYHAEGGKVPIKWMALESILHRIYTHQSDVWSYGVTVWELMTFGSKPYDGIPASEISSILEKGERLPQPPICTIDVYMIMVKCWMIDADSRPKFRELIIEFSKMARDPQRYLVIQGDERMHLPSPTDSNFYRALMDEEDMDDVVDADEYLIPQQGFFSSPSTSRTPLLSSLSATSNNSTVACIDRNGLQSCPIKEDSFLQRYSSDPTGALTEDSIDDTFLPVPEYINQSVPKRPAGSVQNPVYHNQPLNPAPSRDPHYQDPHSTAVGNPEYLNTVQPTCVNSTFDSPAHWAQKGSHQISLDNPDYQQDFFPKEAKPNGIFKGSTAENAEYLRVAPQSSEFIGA

Regarding `CN(CC1CCN(Cc2ccccc2)CC1)c1ncnc2[nH]c(-c3ccc(CO)cc3)nc12`, the CLint in data set [1] is 22.1 µL/min/mg. The pIC50 (as a rule, −log10 of the IC50, conventionally taken in molar units) in data set [2] was less than 6.52. The solubility kinetic at […], 500 µM in data set [3] was 33.5 µM (≈ 14.8 µg/mL).
For `CN(CC1CCCO1)c1ncnc2[nH]c(-c3ccc(CO)cc3)nc12` (stereo unspecified), the CLint in data set [1] was 33.2 µL/min/mg. The negative logarithm of the IC50 (pIC50) in [2] is less than 6.52. For the same compound, the solubility kinetic at […], 500 µM in data set [3] turned out to be 39.7 µM (≈ 13.5 µg/mL).
Turning to `Cc1cccc(CN(C)c2ncnc3[nH]c(-c4ccc(CO)cc4)nc23)c1`, the negative-log IC50 (pIC50) in [4] was 8.89.
`Cc1ccc(CN(C)c2ncnc3[nH]c(-c4ccc(CO)cc4)nc23)cc1`: the negative logarithm of the IC50 (pIC50) in data set [4] was 7.96.
As for `CN(CC1CCOCC1)c1ncnc2[nH]c(-c3ccc(CO)cc3)nc12`, the CLint in data set [1] is 15.8 µL/min/mg; in [10], 58.7 µL/min/mg. Further, the remaining at 1 h, 5 µM was 100% in data set [5] and 83% in [7]. Also, the pIC50 in [2] is 7.08; in the data set on BaF3 it was 5.51. For the same compound, the hepatocyte CLint at 3 µM in data set [6] came to 148 µL/min/1e6 cells. Moreover, the solubility kinetic at […], 500 µM in data set [3] amounted to 55.4 µM (≈ 19.6 µg/mL). The fraction unbound at 6 h, 5 µM in [8] is 0.44. Further, the Vd in data set [9] worked out at 80 L/kg. For the same compound, the CL in data set [11] (iv, 1 mg/kg, 8 h) was 198 L/h/kg. In addition, the half-life (in general, how long it takes for the measured level to halve) in data set [12] was 24 min. Besides, the “inhibition (INH)” value in [13] turned out to be 100%. The inhibition entry in data set [14] and in data set [16] was “Active” in each case. Further, the pKd (in general, the negative decadic logarithm of the Kd, by convention in mol/L) in data set [15] was 8.35; in [17], 7.10.
As for `CN(Cc1ccccc1)c1ncnc2[nH]c(-c3ccc(CO)cc3)nc12`, the CLint in data set [1] was found to be 14.4 µL/min/mg; in data set [10] it was 57.8 µL/min/mg. The pIC50 in [2] was 6.48; in [19] it was 6.96. Besides, the fold change (FC) in data set [18] was found to be 2.9.
With `CN(CC1CCOC1)c1ncnc2[nH]c(-c3ccc(CO)cc3)nc12` (stereo unspecified), the CLint in data set [1] stood at 20.1 µL/min/mg. The pIC50 in data set [2] was less than 6.52. Also, the solubility kinetic at […], 500 µM in [3] was determined as 131 µM (≈ 44.5 µg/mL).
Take `CN(Cc1ccccn1)c1ncnc2[nH]c(-c3ccc(CO)cc3)nc12`: the pIC50 in [4] was 8.14.
On to `CN(Cc1ccccc1)c1ncnc2[nH]c(-c3ccccc3)nc12`, for which the pIC50 in data set [4] was 8.57.
Take `CN1CCCC(CN(C)c2ncnc3[nH]c(-c4ccc(CO)cc4)nc23)C1` (stereo unspecified): the CLint in [1] was 3.6 µL/min/mg. For the same compound, in [2], the negative logarithm of the IC50 (pIC50) is less than 6.52. Further, the solubility kinetic at […], 500 µM in data set [3] was 469 µM (≈ 172 µg/mL).
With `CN(CC1CCCCC1)c1ncnc2[nH]c(-c3ccc(CO)cc3)nc12`, in [1], the CLint worked out at 22.3 µL/min/mg. The negative logarithm of the IC50 (pIC50) in data set [2] is 7.00; in data set [4] it was 9.00. For the same compound, in [3], the solubility kinetic at […], 500 µM was determined as 0.5 µM (≈ 0.176 µg/mL). Also, the fold change (FC) in [18] came out at 0.9.
For `CN(Cc1ccncc1)c1ncnc2[nH]c(-c3ccc(CO)cc3)nc12`, in data set [4], the pIC50 is 8.66.
On to `CN(CC1CCCCO1)c1ncnc2[nH]c(-c3ccc(CO)cc3)nc12` (stereo unspecified), for which the CLint in data set [1] was 24.2 µL/min/mg. In addition, the pIC50 in data set [2] is less than 6.52. For the same compound, the solubility kinetic at […], 500 µM in data set [3] is 9.2 µM (≈ 3.25 µg/mL).
Take `FC(F)(F)c1ccc(CNc2ccc(Cc3c[nH]c4ncc(Cl)cc34)cn2)cn1` [PEXIDARTINIB]: the remaining at 1 h, 5 µM in data set [5] was found to be 100%. Further, the pIC50 in [2] was 7.00; in the data set with BaF3, 7.22. Moreover, the solubility kinetic at […], 500 µM in data set [3] was 20.7 µM (≈ 8.65 µg/mL). Also, the Vd in [9] turned out to be 0.4 L/kg. Also, in data set [11], the clearance (commonly the volume of plasma or blood freed of the substance per unit of time) was 0.05 L/h/kg. Moreover, the “inhibition (INH)” value in data set [13] worked out at 100%. The inhibition result in [14] and in [16] was “Active” each time.
Take `CN(CC1CCOCC1)c1ncnc2[nH]c(-c3ccc(CCO)cc3)nc12`: the CLint in [1] came out at 14.7 µL/min/mg; in data set [10], 30.2 µL/min/mg. Further, the remaining at 1 h, 5 µM was found to be 97.9% in data set [5] and 97.2% in data set [7]. The pIC50 in data set [2] was 6.97; in the data set on BaF3, 5.82. In addition, in [6], the hepatocyte CLint at 3 µM was 22 µL/min/1e6 cells. Further, the solubility kinetic at […], 500 µM in data set [3] was 37.5 µM (≈ 13.8 µg/mL). In data set [8], the fraction unbound at 6 h, 5 µM was 0.366. The fold change (FC) in [18] worked out at 0.7. In addition, the Vd in [9] is 9 L/kg. For the same compound, the clearance in [11] was 19 L/h/kg. Further, in data set [20], the Ratio worked out at 72. In data set [12], this compound had a half-life of 24 min. Besides, the “inhibition (INH)” value in data set [13] is recorded as 100%. For the same compound, the inhibition result in data set [14] and in data set [16] was “Active” throughout. The negative logarithm of the Kd (pKd) was 9.30 in data set [15] and 7.44 in data set [17].
Consider `CN(Cc1cccs1)c1ncnc2[nH]c(-c3ccc(CO)cc3)nc12`, for which the pIC50 in data set [4] is 8.54.
